Assay results reported in patent US20130005670A1, “COMBINATION COMPOSITION, COMPRISING AS ACTIVE INGREDIENTS L-CARNITlNE OR PROPIONYL L-CARNITlNE, FOR THE PREVENTION OR TREATMENT OF CHRONIC VENOUS INSUFFICIENCY” (SIGMA-TAU INDUSTRIE FARMACEUTICHE RIUNITE S.P.A., priority 2010, published 2013).

How the values were obtained:
[1] = test system: aortic rings precontracted by phenylephrine; assay: relaxant effect on aortic rings precontracted by phenylephrine; parameters: species or system spontaneously hypertensive rats; settings: 100 micro-molar each component, final concentration in organ chamber; SHR aortic rings precontracted by phenylephrine (1 micromolar); n=8
Experimental: Relaxant Effect on Aortic Rings of the Compounds Tested. The objective of this study was to investigate the vasoarelaxation effects of the compositions of the invention using isolated aorta from spontaneously hypertensive rats. The compounds tested were used at a concentration expressed as final concentration in the organ chamber. Male spontaneously hypertensive rats (SHR) 10-12 weeks old, weighing 250-300 g, were housed at 24±2° C. with 60±20% relative humidity, on a 12-h light-dark cycle. Rats were given free access to a diet of standard food and water. All experiments were performed according to the guidelines for the ethical treatment of animals of the European Union. The rats were killed by cervical dislocation and the aortae were rapidly dissected. The descending thoracic aorta was placed in a modified Krebs-Henseleit solution (PSS) containing (mM): NaCl 118, KCl 4.75, NaHCO3 25, MgSO4 1.2, CaCl2 1.8, KH2PO4 1.2 and glucose 11. After excess fat and connective tissue were removed, the aortae were cut into 2-3-mm rings. Aortic rings were mounted under a basal tension of 2 g in 20 mL organ baths containing PSS and attached to an isometric transducer (Harvard UF-1); the signal was recorded by a Powerlab data acquisition system (AD-Instruments). The tissue bath was maintained at 37° C. and bubbled with a 95% O2 and 5% CO2 gas mixture. The relaxant effect of compounds tested was assessed by adding the compound to aortic rings precontracted by phenylephrine (1 micromolar). After the aortae were contracted with phenylephrine and when the contractile response was reached, the test compound was added to the bath. All the results were expressed as a percentage of the maximal contraction of phenylephrine-induced responses. Results are expressed as percentages from the initial precontraction level. The significance was calculated on the actual contraction values means±SE (n=8 aorta preparations per group). Eight preparations were studied from a single aorta. The Student t-test was used as the comparison test for statistical analysis.

[2] = test system: croton oil-induced hemorrhoid model in rats; assay: croton oil-induced hemorrhoid model in rats (recto-anus coefficient); type: in vivo, rat; settings: 24 hours after induction with croton oil (3%); oral once per day for five days; 20 mg/kg propionyl L-carnitine or L-carnitine, 30 mg/kg troxerutine, diosmine or hesperidine; RAC = weight of recto-anus (mg)/body weight (g); n = 5 rats
Experimental: Reduction of the Swelling of the Recto-Anus, in Croton Oil-Induced Hemorrhoid Model in Rats.
Male SD rats (6 weeks old, approximately 140 g) were purchased from Harlan Sprague Dawley and allowed to acclimate for 1 week. The rats were maintained in a pathogen-free facility in accordance with the National Research Council of Laboratory Animal care and use guidelines. Each experiment was preformed with age-matched rats 7-8 weeks old. The croton oil-induced hemorrhoid model in rats was performed according to the method published by Nishiki (Nishiki et al. (1988) Folia Pharmacology Japan 92:215-225; Nishiki et al. (1988) Folia Pharmacol. Japan 92:227-240). Briefly, a cotton swab with a diameter of 4 mm soaked with 0.16 mL of inducer (deionized water: pyridine: ethyl ether: 6% croton oil/ethyl ether (1:4:5:10) was applied to the rat's anus for 12 seconds. The final concentration of croton oil was 3%. The edema developed linearly until 7-8 hours after application and the severity of the edema was sustained for more than 24 hours. Twenty-four hours later, recto-anus tissue (approx. 10 mm long) was isolated after the rats were euthanized. The weights of rat body and recto-anus were measured. The recto-anus coefficient (RAC) was calculated using the formula: weight of recto-anus (mg)/body weight (g).
The compounds of the invention were administered orally suspended in saline (1 mL) once per day for five days. Last treatment with the compounds of the invention was made the day of induction of oedema with croton oil.
The compounds of the invention were administered alone or in combination at the following doses: 20 mg/kg propionyl L-carnitine or L-carnitine; 30 mg/kg troxerutine, diosmine or hesperidine.
Twenty-four hours after hemorrhoid induction with croton oil the RAC of rats was determined.

COc1ccc(-c2cc(=O)c3c(O)cc(O[C@@H]4O[C@H](CO[C@@H]5O[C@@H](C)[C@H](O)[C@@H](O)[C@H]5O)[C@@H](O)[C@H](O)[C@H]4O)cc3o2)cc1O [Diosmine, diosmine]
% RELAXATION [1]: 10% | RAC (recto-anus coefficient) [2]: 2.02

COc1ccc([C@@H]2CC(=O)c3c(O)cc(O[C@@H]4O[C@H](CO[C@@H]5O[C@@H](C)[C@H](O)[C@@H](O)[C@H]5O)[C@@H](O)[C@H](O)[C@H]4O)cc3O2)cc1O [Hesperidine, hesperidine]
% RELAXATION [1]: 9% | RAC (recto-anus coefficient) [2]: 2.07

C[N+](C)(C)C[C@H](O)CC(=O)[O-] [L-carnitine]
% RELAXATION [1]: 25% | RAC (recto-anus coefficient) [2]: 1.99

CCC(=O)O[C@H](CC(=O)[O-])C[N+](C)(C)C [Propionyl L-carnitine, propionyl L-carnitine]
% RELAXATION [1]: 28% | RAC (recto-anus coefficient) [2]: 1.96

C[C@@H]1O[C@@H](OC[C@H]2O[C@@H](Oc3c(-c4ccc(OCCO)c(OCCO)c4)oc4cc(OCCO)cc(O)c4c3=O)[C@H](O)[C@@H](O)[C@@H]2O)[C@H](O)[C@H](O)[C@H]1O [Troxerutine]
% RELAXATION [1]: 10% | RAC (recto-anus coefficient) [2]: 2.11
